Assay results taken from patent publication US10774051B2, “6-membered heterocyclic derivatives and pharmaceutical composition comprising the same” (Shionogi & Co., Ltd., priority 2015, dated 2020).
Where two headings read alike, the source gives them in different places.

Biological target: human P2X7 receptor (Homo sapiens, UniProt Q99572, R270H/Y155H)
Assay: Evaluation of human P2X7 receptor inhibitory activity (Yo-Pro uptake, BzATP stimulation, FLIPR TETRA)
Type: cell-based
Conditions: 1321N1 cells stably expressing human P2X7 receptor, BzATP stimulation, Yo-Pro uptake
Procedure, shortened: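 Yo-Pro dye uptake triggered by BzATP was monitored by FLIPR in human P2X7-transfected 1321N1 cells (SNP variant) in HEPES-buffered HBSS, pH 7.4-7.5. Compound was dispensed 8 min post-stimulation, then signal read for 20 min; IC50 derived logistically from inhibition of the fluorescence range.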

[1] = read-out: IC50 (antagonistic activity for the human P2X7 receptor), class symbol
[2] = read-out: IC50 (antagonistic activity for the human P2X7 receptor)

Row | SMILES | IC50 [1] [nM] | IC50 [2] [nM]
1 | COc1cn(Cc2ccccc2)c(Nc2cc(C)cc3[nH]ccc23)nc1=O [Compound I-0390] | 10 to 100 | –
2 | COc1cn(Cc2ccccc2)c(Nc2cccc3c(=O)[nH]ccc23)nc1=O [Compound I-0392] | 10 to 100 | –
3 | COc1cn(Cc2ccccc2)c(Nc2cc(N3CCCC3=O)ccc2C)nc1=O [Compound I-0393] | 10 to 100 | –
4 | COc1ccc(Nc2nc(=O)c(OC)cn2Cc2ccc(F)c(Cl)c2)c(C)c1C [Compound I-0394] | < 10 | –
5 | COc1cc(C)cc(Nc2nc(=O)c(OC)cn2Cc2cc(F)cc(Cl)c2)c1C [Compound I-0395] | < 10 | –
6 | COc1cn(Cc2ccc(F)c(Cl)c2)c(Nc2cc(C)cc3[nH]ccc23)nc1=O [Compound I-0396] | < 10 | –
7 | COc1cn(Cc2ccc(F)c(Cl)c2)c(Nc2cccc3[nH]c(=O)ccc23)nc1=O [Compound I-0397] | – | 67
8 | COc1cn(Cc2ccc(F)c(Cl)c2)c(Nc2cccc3c(=O)[nH]ccc23)nc1=O [Compound I-0398] | 10 to 100 | –
9 | COc1cn(Cc2ccc(F)c(Cl)c2)c(Nc2cc(N3CCCC3=O)ccc2C)nc1=O [Compound I-0399] | < 10 | –
10 | CCc1cc(F)ccc1Nc1nc(=O)c(OC)cn1Cc1ccccc1 [Compound I-0400] | 100 to 500 | –
11 | COc1cn(Cc2ccc(F)cc2)c(Nc2cccc(N(C)C)c2C)nc1=O [Compound I-0401] | 10 to 100 | –
12 | COc1cn(Cc2ccc(F)c(Cl)c2)c(Nc2cccc(N(C)C)c2C)nc1=O [Compound I-0402] | < 10 | –
13 | COc1cn(Cc2cc(F)cc(Cl)c2)c(Nc2cccc(C)c2C)nc1=O [Compound I-0403] | 10 to 100 | –
14 | COc1cc(C)cc(Nc2nc(=O)c(OC)cn2Cc2ccc(F)c(F)c2)c1C [Compound I-0404] | < 10 | –
15 | COc1cc(C)cc(Nc2nc(=O)c(OC)cn2Cc2cccc(F)c2)c1C [Compound I-0405] | – | 2
16 | COc1cc(C)c(Nc2nc(=O)c(Cl)cn2Cc2ccc(F)cc2)cc1OC [Compound I-0406] | < 10 | –
17 | COc1ccc(C)c(Nc2nc(=O)c(OC)cn2Cc2ccc(F)c(F)c2)c1 [Compound I-0407] | – | 6
18 | COc1ccc(C)c(Nc2nc(=O)c(OC)cn2Cc2cc(F)cc(F)c2)c1 [Compound I-0408] | 10 to 100 | –
19 | COc1ccc(C)c(Nc2nc(=O)c(OC)cn2Cc2cc(F)cc(Cl)c2)c1 [Compound I-0409] | 10 to 100 | –
20 | COc1c(C)ccc(Nc2nc(=O)c(OC)cn2Cc2ccccc2)c1C [Compound I-0410] | < 10 | –
21 | COc1cn(Cc2ccccc2)c(Nc2cc(N3CCN(C(=O)OC(C)(C)C)CC3)ccc2C)nc1=O [Compound I-0411] | 100 to 500 | –
22 | COc1cn(Cc2ccc(F)c(Cl)c2)c(Nc2cc(N3CCN(C(=O)OC(C)(C)C)CC3)ccc2C)nc1=O [Compound I-0412] | 100 to 500 | –
23 | COc1cn(Cc2ccccc2)c(Nc2cc(S(=O)(=O)Nc3ccccc3)c(F)cc2C)nc1=O [Compound I-0415] | 500 to 1000 | –
24 | COc1cn(Cc2ccccc2)c(Nc2cc(-c3nc4ncccc4o3)ccc2C)nc1=O [Compound I-0416] | 10 to 100 | –
25 | COc1cn(Cc2ccc(F)c(Cl)c2)c(Nc2cc(-c3nc4ncccc4o3)ccc2C)nc1=O [Compound I-0417] | 100 to 500 | –
26 | COc1c(C)ccc(Nc2nc(=O)c(OC)cn2Cc2ccc(F)c(Cl)c2)c1C [Compound I-0419] | < 10 | –
27 | CCc1cc(F)ccc1Nc1nc(=O)c(OC)cn1Cc1ccc(F)c(Cl)c1 [Compound I-0420] | 10 to 100 | –

Row | SMILES | IC50 [1] [nM] | IC50 [2] [nM]
28 | COc1cn(Cc2ccccc2OC(F)F)c(Nc2cccc(Cl)c2C)nc1=O [Compound I-0421] | 10 to 100 | –
29 | COc1cn(Cc2ccccc2COC(F)F)c(Nc2cccc(Cl)c2C)nc1=O [Compound I-0422] | 500 to 1000 | –
30 | COc1cn(Cc2ccccc2)c(Nc2cc(Cl)c(Cl)cc2C)nc1=O [Compound I-0423] | 10 to 100 | –
31 | COc1cc(C)cc(Nc2nc(=O)c(OC)cn2Cc2ccc(F)c(Cl)c2)c1C [Compound I-0424] | < 10 | –
32 | COc1cn(Cc2cc(C)cc(F)c2)c(Nc2cccc(Cl)c2C)nc1=O [Compound I-0425] | – | 19
33 | COc1cn(Cc2ccc(F)c(Cl)c2)c(Nc2cc(Cl)c(Cl)cc2C)nc1=O [Compound I-0426] | 10 to 100 | –
34 | COc1cc(F)cc(Cn2cc(OC)c(=O)nc2Nc2cccc(Cl)c2C)c1 [Compound I-0427] | 100 to 500 | –
35 | COc1cc(C)cc(Nc2nc(=O)c(OC)cn2Cc2cccc(Cl)c2)c1C [Compound I-0428] | < 10 | –
36 | COc1cn(Cc2ccccc2)c(Nc2cccc(SC)c2C)nc1=O [Compound I-0429] | < 10 | –
37 | COc1cn(Cc2ccc(F)c(Cl)c2)c(Nc2cccc(SC)c2C)nc1=O [Compound I-0430] | < 10 | –
38 | COc1cn(Cc2ccccc2)c(Nc2cc3sc(C)nc3cc2C)nc1=O [Compound I-0431] | 10 to 100 | –
39 | COc1cn(Cc2cccc(Cl)c2)c(Nc2cccc(N(C)C)c2C)nc1=O [Compound I-0432] | 10 to 100 | –
40 | COc1cn(Cc2ccccc2)c(Nc2cc(C)c(F)cc2C)nc1=O [Compound I-0433] | < 10 | –
41 | COc1cn(Cc2ccc(F)c(F)c2)c(Nc2cc(C)ccc2C)nc1=O [Compound I-0434] | < 10 | –
42 | CCc1ccccc1Nc1nc(=O)c(OC)cn1Cc1cc(F)cc(Cl)c1 [Compound I-0435] | 10 to 100 | –
43 | COc1cn(Cc2cc(F)cc(F)c2)c(Nc2cc(C)ccc2C)nc1=O [Compound I-0436] | < 10 | –
44 | COc1cn(Cc2cc(F)cc(F)c2)c(Nc2cc(C)c(F)cc2C)nc1=O [Compound I-0437] | – | 8
45 | COc1cccc(Nc2nc(=O)c(OC)cn2Cc2cc(F)cc(F)c2)c1C [Compound I-0438] | < 10 | –
46 | COc1cc(C)c(Nc2nc(=O)c(OC)cn2Cc2cc(F)cc(F)c2)cc1OC [Compound I-0439] | < 10 | –
47 | CCc1cc(OC)ccc1Nc1nc(=O)c(OC)cn1Cc1cc(F)cc(F)c1 [Compound I-0440] | < 10 | –
48 | COc1cn(Cc2cc(F)cc(F)c2)c(Nc2cccc3sccc23)nc1=O [Compound I-0441] | < 10 | –
49 | COc1cn(Cc2cccc(F)c2)c(Nc2cc(C)c(F)cc2C)nc1=O [Compound I-0442] | < 10 | –
50 | COc1cn(Cc2ccc(F)cc2)c(Nc2cc(C)c(F)cc2C)nc1=O [Compound I-0443] | < 10 | –
51 | COc1cn(Cc2cccc(Cl)c2)c(Nc2cc(-c3nnco3)ccc2C)nc1=O [Compound I-0444] | 10 to 100 | –
52 | COc1cn(Cc2cc(F)cc(Cl)c2)c(Nc2cc(C)ccc2C)nc1=O [Compound I-0445] | 10 to 100 | –
53 | COc1cn(Cc2ccccc2OC(F)F)c(Nc2cccc(Cl)c2C)nc1=O [Compound I-0446] | < 10 | –
54 | COc1cn(Cc2ccccc2COC(F)F)c(Nc2cccc(Cl)c2C)nc1=O [Compound I-0447] | < 10 | –

Row | SMILES | IC50 [1] [nM] | IC50 [2] [nM]
55 | COc1cn(Cc2ccccc2)c(Nc2cc(Cl)c(Cl)cc2C)nc1=O [Compound I-0448] | 10 to 100 | –
56 | COc1cc(C)cc(Nc2nc(=O)c(OC)cn2Cc2ccc(F)c(Cl)c2)c1C [Compound I-0449] | < 10 | –
57 | COc1cn(Cc2cc(C)cc(F)c2)c(Nc2cccc(Cl)c2C)nc1=O [Compound I-0450] | 10 to 100 | –
58 | COc1cn(Cc2ccc(F)c(Cl)c2)c(NCc2cccc(Cl)c2C)nc1=O [Compound I-0451] | 100 to 500 | –
59 | COc1cc(C)c(Nc2nc(=O)c(OC)cn2Cc2cc(F)cc(Cl)c2)cc1OC [Compound I-0452] | – | 110
60 | CCc1ccccc1CNc1nc(=O)c(OC)cn1Cc1ccc(F)c(Cl)c1 [Compound I-0453] | – | 73
61 | CCc1ccccc1CNc1nc(=O)c(OC)cn1Cc1cc(F)cc(F)c1 [Compound I-0454] | 10 to 100 | –
62 | CCOc1ccc(C)c(Nc2nc(=O)c(OC)cn2Cc2ccccc2)c1 [Compound I-0455] | 10 to 100 | –
63 | CCOc1ccc(C)c(Nc2nc(=O)c(OC)cn2Cc2cccc(Cl)c2)c1 [Compound I-0456] | 10 to 100 | –
64 | COc1cn(Cc2ccccc2OC(F)F)c(Nc2cccc(Cl)c2C)nc1=O [Compound I-0457] | < 10 | –
65 | COc1cn(Cc2ccccc2COC(F)F)c(Nc2cccc(Cl)c2C)nc1=O [Compound I-0458] | 10 to 100 | –
66 | COc1cn(Cc2ccccc2)c(Nc2cc(Cl)c(Cl)cc2C)nc1=O [Compound I-0459] | < 10 | –
67 | COc1cc(C)cc(Nc2nc(=O)c(OC)cn2Cc2ccc(F)c(Cl)c2)c1C [Compound I-0460] | 10 to 100 | –
68 | COc1cn(Cc2cc(C)cc(F)c2)c(Nc2cccc(Cl)c2C)nc1=O [Compound I-0461] | < 10 | –
69 | COc1cn(Cc2ccccc2OC(F)F)c(Nc2cccc(Cl)c2C)nc1=O [Compound I-0462] | 10 to 100 | –
70 | COc1cn(Cc2ccccc2COC(F)F)c(Nc2cccc(Cl)c2C)nc1=O [Compound I-0463] | < 10 | –
71 | COc1cn(Cc2ccccc2)c(Nc2cc(Cl)c(Cl)cc2C)nc1=O [Compound I-0464] | < 10 | –
72 | COc1cc(C)cc(Nc2nc(=O)c(OC)cn2Cc2ccc(F)c(Cl)c2)c1C [Compound I-0465] | < 10 | –
73 | COc1cn(Cc2cc(C)cc(F)c2)c(Nc2cccc(Cl)c2C)nc1=O [Compound I-0466] | 10 to 100 | –
74 | COc1cn(Cc2ccc(F)c(F)c2)c(Nc2cccc(C(F)(F)F)c2C)nc1=O [Compound I-0467] | < 10 | –
75 | COc1cn(Cc2ccc(F)c(Cl)c2)c(Nc2cccc(C(F)(F)F)c2C)nc1=O [Compound I-0468] | 10 to 100 | –
76 | COc1cc(C)c(Nc2nc(=O)c(OC)cn2Cc2cc(F)cc(Cl)c2)cc1OC [Compound I-0469] | < 10 | –
77 | COc1cn(Cc2cc(F)cc(F)c2)c(Nc2cccc(C(F)(F)F)c2C)nc1=O [Compound I-0470] | 10 to 100 | –
78 | Cc1c(Cl)cccc1Nc1nc(=O)c(F)cn1Cc1ccc(F)c(F)c1 [Compound I-0471] | < 10 | –
79 | Cc1c(Cl)cccc1Nc1nc(=O)c(Cl)cn1Cc1ccc(F)c(F)c1 [Compound I-0472] | < 10 | –
80 | COc1cc(Nc2nc(=O)c(OC)cn2Cc2ccccc2)c(C)cc1Cl [Compound I-0473] | < 10 | –
